Laboratory results as given in patent US5543429A, “Antifungal agents” (Merck & Co., Inc., priority 1995, dated 1996).
≈ marks a conversion by molar mass, not a printed value.

What was measured:
[1] = tested on: Plasmopara viticola; assay: in vivo protectant assay, downy mildew on grape; settings: P. viticola
[2] = tested on: Botrytis cinerea; assay: in vivo protectant assay, grey mold on pepper; settings: B. cinerea
[3] = tested on: Phytophthora infestans; assay type: in vivo; settings: P. infestans, miniature plant assay
[4] = tested on: Alternaria solani; assay: in vivo protectant assay, early blight on tomato; settings: A. solani, miniature plant assay
[5] = tested on: Septoria nodorum; assay: in vivo protectant assay, glume blotch on wheat; settings: S. nodorum, scaled up, high spray volume assay, 100 ppm
[6] = tested on: Puccinia recondita; assay: in vivo protectant assay, wheat leaf rust on wheat; settings: P. recondita, scaled up, high spray volume assay, 100 ppm
[7] = tested on: panel of seven pathogens; assay: in vivo protectant assay, panel of seven phytopathogens
[8] = tested on: Aspergillus flavus, Fusarium oxysporum, Ustilago zeae and the like; assay: agar plate inhibition zone test with filamentous fungi; assay type: cell-based; settings: agar plates, 28°C or 37°C, 24 hours
[9] = tested on: Candida albicans MY1055; assay: broth microdilution assay (MIC/MFC); settings: for MIC: MY1055, 24 h, read-out: Minimum Inhibitory Concentration (MIC); for MFC: MY1055, read-out: Minimum Fungicidal Concentration (MFC)
[10] = tested on: Candida glabrata MY1381; assay: broth microdilution assay (MIC/MFC); settings: Nakaseomyces glabratus; for MIC: MY1381, 24 h, read-out: Minimum Inhibitory Concentration (MIC); for MFC: MY1381, read-out: Minimum Fungicidal Concentration (MFC)
[11] = tested on: Candida parapsilosis MY1010; assay: broth microdilution assay (MIC/MFC); settings: Lodderomyces parapsilosis; for MIC: MY1010, 24 h, read-out: Minimum Inhibitory Concentration (MIC); for MFC: MY1010, read-out: Minimum Fungicidal Concentration (MFC)
[12] = tested on: Candida pseudotropicalis MY2099; assay: broth microdilution assay (MIC/MFC); settings: Kluyveromyces marxianus; for MIC: MY2099, 24 h, read-out: Minimum Inhibitory Concentration (MIC); for MFC: MY2099, read-out: Minimum Fungicidal Concentration (MFC)
[13] = tested on: Candida tropicalis MY1124; assay: broth microdilution assay (MIC/MFC); settings: for MIC: MY1124, 24 h, read-out: Minimum Inhibitory Concentration (MIC); for MFC: MY1124, read-out: Minimum Fungicidal Concentration (MFC)
[14] = tested on: Candida albicans CLY539; assay: broth microdilution assay (MIC/MFC); settings: for MIC: CLY539, 24 h, read-out: Minimum Inhibitory Concentration (MIC); for MFC: CLY539, read-out: Minimum Fungicidal Concentration (MFC)
[15] = tested on: Candida albicans CA2; assay: broth microdilution assay (MIC/MFC); settings: for MIC: CA2, 24 h, read-out: Minimum Inhibitory Concentration (MIC); for MFC: CA2, read-out: Minimum Fungicidal Concentration (MFC)
[16] = tested on: Candida tropicalis MY1012; assay: broth microdilution assay (MIC/MFC); settings: for MIC: MY1012, 24 h, read-out: Minimum Inhibitory Concentration (MIC); for MFC: MY1012, read-out: Minimum Fungicidal Concentration (MFC)
[17] = tested on: Candida guillermondii MY1019; assay: broth microdilution assay (MIC/MFC); settings: for MIC: MY1019, 24 h, read-out: Minimum Inhibitory Concentration (MIC); for MFC: MY1019, read-out: Minimum Fungicidal Concentration (MFC)
[18] = tested on: Cryptococcus neoformans MY2061; assay: broth microdilution assay (MIC/MFC); settings: MY2061, 48 h; for MFC: read-out: Minimum Fungicidal Concentration (MFC); for MIC: read-out: Minimum Inhibitory Concentration (MIC)
[19] = tested on: Cryptococcus neoformans MY2062; assay: broth microdilution assay (MIC/MFC); settings: MY2062, 48 h; for MFC: read-out: Minimum Fungicidal Concentration (MFC); for MIC: read-out: Minimum Inhibitory Concentration (MIC)
[20] = tested on: Saccharomyces cerevisiae MY2140; assay: broth microdilution assay (MIC/MFC); settings: for MIC: MY2140, 24 h, read-out: Minimum Inhibitory Concentration (MIC); for MFC: MY2140, read-out: Minimum Fungicidal Concentration (MFC)
[21] = tested on: Saccharomyces cerevisiae MY2141; assay: broth microdilution assay (MIC/MFC); settings: for MIC: MY2141, 24 h, read-out: Minimum Inhibitory Concentration (MIC); for MFC: MY2141, read-out: Minimum Fungicidal Concentration (MFC)
[22] = tested on: Aspergillus fumigatus MY4839; assay: broth microdilution assay (MIC/MFC); settings: MY4839, 24 h, read-out: Minimum Inhibitory Concentration (MIC)
[23] = tested on: Aspergillus fumigatus MY5668; assay: broth microdilution assay (MIC/MFC); settings: MY5668, 24 h, read-out: Minimum Inhibitory Concentration (MIC)
[24] = scaled up, high spray volume assay, 100 ppm

Row | SMILES | MIC [9] [µg/mL] | MFC [9] [µg/mL] | MIC [10] [µg/mL] | MFC [10] [µg/mL] | MIC [11] [µg/mL] | MFC [11] [µg/mL] | MIC [12] [µg/mL] | MFC [12] [µg/mL] | MIC [13] [µg/mL] | MFC [13] [µg/mL] | MIC [14] [µg/mL] | MFC [14] [µg/mL] | MIC [15] [µg/mL] | MFC [15] [µg/mL] | MIC [16] [µg/mL] | MFC [16] [µg/mL] | MIC [17] [µg/mL] | MFC [17] [µg/mL] | MIC [19] [µg/mL] | MIC [20] [µg/mL] | also measured
1 | C=CC1=CCC2C(CC3OC(=O)C4(C)C(O)CCC2(C)C34O)C1C (stereo not drawn) [Compound II] | 2 (≈ 6.02 µM) | 4 (≈ 12 µM) | 4 (≈ 12 µM) | 4 (≈ 12 µM) | 8 (≈ 24.1 µM) | 8 (≈ 24.1 µM) | 1 (≈ 3.01 µM) | 2 (≈ 6.02 µM) | 4 (≈ 12 µM) | 8 (≈ 24.1 µM) | 2 (≈ 6.02 µM) | 2 (≈ 6.02 µM) | 32 (≈ 96.3 µM) | 4 (≈ 12 µM) | 2 (≈ 6.02 µM) | 2 (≈ 6.02 µM) | 8 (≈ 24.1 µM) | 16 (≈ 48.1 µM) | 1 (≈ 3.01 µM) | 1 (≈ 3.01 µM) | percent control of disease ([1]; miniature plant assay): 80-95%; percent control of disease ([1]; protectant assay, 11 ppm): 50-85%; percent control of disease [1, 24]: 100%; percent control of disease ([2]; miniature plant assay): 80-95%; percent control of disease ([2]; protectant assay, 11 ppm): 50-85%; percent control of disease [2, 24]: 100%; percent control of disease [3]: 80-95%; percent control of disease [4]: 80-95%; percent control of disease [5]: 60%; percent control of disease [6]: 100%; control of phytopathogens [7]: very efficacious at controlling six of the phytopathogens; inhibition of growth of filamentous fungi [8]: effectively inhibit growth of the fungal organisms; MFC [18]: 1 µg/mL (≈ 3.01 µM); MIC [18]: 2 µg/mL (≈ 6.02 µM); MFC [19]: 1 µg/mL (≈ 3.01 µM); MFC [20]: 2 µg/mL (≈ 6.02 µM); MIC [21]: 0.5 µg/mL (≈ 1.5 µM); MFC [21]: 1 µg/mL (≈ 3.01 µM); MIC [22]: 2 µg/mL (≈ 6.02 µM); MIC [23]: 1 µg/mL (≈ 3.01 µM)
2 | C[C@@H]1[C@H](O)[C@@H](C)/C=C/C=C/C=C/C=C/C=C/C=C/C=C/[C@H](O[C@@H]2O[C@H](C)[C@@H](O)[C@H](N)[C@@H]2O)C[C@@H]2O[C@](O)(C[C@@H](O)C[C@@H](O)[C@H](O)CC[C@@H](O)C[C@@H](O)CC(=O)O[C@H]1C)C[C@H](O)[C@H]2C(=O)O [Amphotericin B, amphotericin B, reference compound] | 1 (≈ 1.08 µM) | 1 (≈ 1.08 µM) | 2 (≈ 2.16 µM) | 2 (≈ 2.16 µM) | 1 (≈ 1.08 µM) | 1 (≈ 1.08 µM) | 2 (≈ 2.16 µM) | 2 (≈ 2.16 µM) | 2 (≈ 2.16 µM) | 2 (≈ 2.16 µM) | 1 (≈ 1.08 µM) | 2 (≈ 2.16 µM) | 1 (≈ 1.08 µM) | 1 (≈ 1.08 µM) | 16 (≈ 17.3 µM) | 16 (≈ 17.3 µM) | 1 (≈ 1.08 µM) | 2 (≈ 2.16 µM) | 1 (≈ 1.08 µM) | 1 (≈ 1.08 µM) | MFC [20]: 1 µg/mL (≈ 1.08 µM); MIC [21]: 1 µg/mL (≈ 1.08 µM); MFC [21]: 1 µg/mL (≈ 1.08 µM); MIC [22]: 2 µg/mL (≈ 2.16 µM); MIC [23]: 2 µg/mL (≈ 2.16 µM)
3 | C=CC1C(=C)CCC2C1CC1OC(=O)C3(C)C(O)CCC2(C)C13O (stereo not drawn) [Compound I] | 2 (≈ 6.02 µM) | 4 (≈ 12 µM) | 8 (≈ 24.1 µM) | 8 (≈ 24.1 µM) | 8 (≈ 24.1 µM) | 32 (≈ 96.3 µM) | 4 (≈ 12 µM) | 4 (≈ 12 µM) | 8 (≈ 24.1 µM) | 16 (≈ 48.1 µM) | 4 (≈ 12 µM) | 2 (≈ 6.02 µM) | 8 (≈ 24.1 µM) | 8 (≈ 24.1 µM) | 2 (≈ 6.02 µM) | 2 (≈ 6.02 µM) | 8 (≈ 24.1 µM) | 16 (≈ 48.1 µM) | 0.25 (≈ 0.752 µM) | 2 (≈ 6.02 µM) | percent control of disease ([1]; 200 ppm): up to 80%; percent control of disease ([2]; 200 ppm): up to 80%; inhibition of growth of filamentous fungi [8]: effectively inhibit growth of the fungal organisms; MFC [18]: 0.25 µg/mL (≈ 0.752 µM); MIC [18]: 0.5 µg/mL (≈ 1.5 µM); MFC [19]: 0.25 µg/mL (≈ 0.752 µM); MFC [20]: 8 µg/mL (≈ 24.1 µM); MIC [21]: 1 µg/mL (≈ 3.01 µM); MFC [21]: 8 µg/mL (≈ 24.1 µM); MIC [22]: 4 µg/mL (≈ 12 µM); MIC [23]: 8 µg/mL (≈ 24.1 µM)
